Source: US7825151B2, “Hexahydro-cyclooctyl pyrazole cannabinoid modulators” (priority 2005, dated 2010)
Where “and” joins values, the source holds several entries; their conditions need not be identical. Equal values may be shown once. Read-outs that look alike come from different tables or passages of the source.

How the values were obtained:
human CB1 receptor [1] = target: T1, human CB1 receptor (Homo sapiens, UniProt P21554); experiment: Functional cell-based CRE β-gal assay, CB1 (adenylate cyclase activity)
T1 construct: expressed in transfected cells; host or cells: SK-N-MC cells, stably transfected with pcDNA3 CB-1 (human)
T1 sequence (P21554 whole entry): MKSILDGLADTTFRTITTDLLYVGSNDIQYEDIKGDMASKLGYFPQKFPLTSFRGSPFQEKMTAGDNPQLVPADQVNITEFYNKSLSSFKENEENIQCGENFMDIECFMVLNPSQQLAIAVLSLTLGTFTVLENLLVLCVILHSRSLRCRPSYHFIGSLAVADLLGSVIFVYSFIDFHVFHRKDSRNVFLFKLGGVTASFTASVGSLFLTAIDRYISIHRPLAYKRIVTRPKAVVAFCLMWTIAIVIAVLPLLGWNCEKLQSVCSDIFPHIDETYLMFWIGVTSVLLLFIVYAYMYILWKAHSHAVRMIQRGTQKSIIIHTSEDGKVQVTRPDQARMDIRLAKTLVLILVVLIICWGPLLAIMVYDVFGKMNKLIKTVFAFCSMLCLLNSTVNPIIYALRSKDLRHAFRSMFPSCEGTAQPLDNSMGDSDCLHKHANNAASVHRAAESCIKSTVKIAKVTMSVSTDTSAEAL
Description: (§1) The CB1 and CB2 receptors are G-protein coupled receptors (GPCR), which influence cell function via the Gi-protein. These receptors modulate the activity of intracellular adenylate cyclase, which in turn produces the intracellular signal messenger cyclic-AMP (cAMP).
(§2) At baseline, or during non-ligand bound conditions, these receptors are constitutively active and tonically suppress adenylate cyclase activity. The binding of an agonist causes further receptor activation and produces additional suppression of adenylate cyclase activity. The binding of an inverse agonist inhibits the constitutive activity of the receptors and results in an increase in adenylate cyclase activity.
(§3) By monitoring intracellular adenylate cyclase activity, the ability of compounds to act as agonists or inverse agonists can be determined.
(§4) Test compounds were evaluated in SK-N-MC cells which, using standard transfection procedures, were stably transfected with human cDNA for pcDNA3-CRE β-gal and pcDNA3 CB1 receptor (human) or pcDNA3 CB2 receptor (human). By expressing CRE β-gal, the cells produced β-galactosidase in response to CRE promoter activation by cAMP. Cells expressing CRE β-gal and either the human CB1 or CB2 receptor will produce less β-galactosidase when treated with a CB1/CB2 agonist and will produce more β-galactosidase when treated with a CB1/CB2 inverse agonist.
(§5) The cells were grown in 96-well plates under standard cell culture conditions at 37° C. in a 5% CO2 atmosphere. After 3 days, the media was removed and a test compound in media (wherein the media was supplemented with 2 mM L-glutamine, […] sodium pyruvate, 0.1% low fatty acid FBS (fetal bovine serum) and antibiotics) was added to the cell. The plates were incubated for 30 minutes at 37° C. and the plate cells were then treated with forskolin over a 4-6 hour period, then washed and lysed. The β-galactosidase activity was quantitated using commercially available kit reagents (Promega Corp. Madison, Wis.) and a Vmax Plate Reader (Molecular Devices, Inc).
(§6) The change in β-galactosidase activity was determined by setting a vehicle treated cell's activity value at 100% and expressing the β-galactosidase activity measured in a corresponding compound treated cell as a percent of the vehicle treated cell activity.
The EC50 value for functional activity for compounds tested was calculated by linear regression and was obtained from studies in which varying compound concentrations were used. Data provided for certain compounds is represented by percent change (%) in functional activity at a single test concentration: ^(1)10 μM and ^(2)1 μM.

CB2 receptor [2] = target: T2, CB2 receptor (Homo sapiens, UniProt P34972); experiment: Functional cell-based CRE β-gal assay, CB2 (adenylate cyclase activity)
T2 construct: expressed in transfected cells; host or cells: SK-N-MC cells, stably transfected with pcDNA3 CB-2 (human)
T2 sequence (P34972 whole entry): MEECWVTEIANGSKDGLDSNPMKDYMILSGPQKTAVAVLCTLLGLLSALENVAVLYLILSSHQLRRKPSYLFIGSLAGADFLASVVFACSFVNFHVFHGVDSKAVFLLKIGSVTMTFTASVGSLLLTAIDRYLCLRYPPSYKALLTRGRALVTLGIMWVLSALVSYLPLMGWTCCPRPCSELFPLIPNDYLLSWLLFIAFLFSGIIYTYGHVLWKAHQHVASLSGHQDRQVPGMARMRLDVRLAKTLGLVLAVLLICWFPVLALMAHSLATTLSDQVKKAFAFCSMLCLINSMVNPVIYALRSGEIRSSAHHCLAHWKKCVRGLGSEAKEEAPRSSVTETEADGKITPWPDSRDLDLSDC
Description: as §1, §2, §3, §4, §5
For cells expressing CRE β-gal and the CB2 receptor, CB2 agonists reduced β-galactosidase activity in a dose-dependent manner and CB2 inverse agonists increase β-galactosidase activity in a dose-dependent manner.
as §6
The EC50 value for functional activity for compounds tested was calculated by linear regression and was obtained from studies in which varying compound concentrations were used.
The value of 29% for Compound 5 represents change in functional activity and was obtained from a study in which one compound concentration was used.

human CB1 receptor [3] = target: T1, human CB1 receptor; experiment: Binding assay for CB1 ([3H]-CP-55,940 displacement, SK-N-MC membranes); conditions: for IC50: Cannabinoid CB1 Receptor Binding IC50, radioligand CP-55,940 0.2 nM, SK-N-MC membranes; for inhibition at 0.2 µM: test concentration 0.2 μM (footnote 3)
Method: (§7) The human CB1 and CB2 receptors were stably expressed in SK-N-MC cells transfected with pcDNA3 CB-1 (human) or pcDNA3 CB-2 (human). The cells were grown in T-180 cell culture flasks under standard cell culture conditions at 37° C. in a 5% CO2 atmosphere. The cells were harvested by trysinization and homogenized in a homogenization buffer (10 mM Tris, 0.2 mM MgCl2, 5 mM KCl, with protease inhibitors aprotinin, leupeptin, pepstatin A and bacitracin) and centrifuged (2000 g). The supernatant was then centrifuged in 2M sucrose (31,300 g) to produce a semi-purified membrane pellet. The pellet was resuspended in homogenization and stored at −80° C.
(§8) On the day of the assay, the pellet was thawed on ice and diluted in assay buffer (50 mM Tris-HCl, 5 mM MgCl2, 2.5 mM EDTA, 0.5 mg/mL fatty acid free bovine serum albumin, pH 7.5). The diluted membrane pellet was added with buffer, either a test compound or vehicle standard and the radioligand [H]^3+-CP-55,940 (0.2 nM) to the wells of a 96-well polypropylene plate. Non-specific binding was measured in wells containing WIN 55,212 (10 uM). The plate was covered and incubated for 90 minutes at 30° C. The contents were then aspirated onto a Packard Unifilter GF/C filter bottom plate prewet with 0.5% polyethyleneimine. The wells of the polypropylene plate were rinsed and aspirated seven times with a 0.9% saline-0.5% Tween 20 solution. The Unifilter plate was dried, scintillation cocktail was added to each well and the counts representing binding were quantitated in a TopCount scintillation counter.
(§9) For compounds tested, an IC50 binding value was obtained from percent inhibition studies in which various test concentrations were used. The binding value was calculated by linear regression.
(§10) For compounds without an IC50 binding value, the percent inhibition (%) was obtained at a test concentration of ^(1)10 μM, ^(2)1 μM, ^(3)0.2 μM, ^(4)0.003 μM, ^(5) represents an average value.

CB2 receptor [4] = target: T2, CB2 receptor; experiment: Binding assay for CB2 ([3H]-CP-55,940 displacement, SK-N-MC membranes)
Method: as §7, §8, §9, §10

[5] = read-out: CB1 receptor binding percent inhibition
[6] = read-out: CB2 receptor binding percent inhibition
[7] = test concentration 0.2 μM (footnote 3), read-out: CB2 receptor binding percent inhibition

| SMILES | EC50 (human CB1 receptor [1]) | EC50 (CB2 receptor [2]) | IC50 (human CB1 receptor [3]) | inhibition at 0.2 µM (human CB1 receptor [3]; [5]) | further results |
| --- | --- | --- | --- | --- | --- |
| C[C@H](NS(=O)(=O)/C=C/c1n[nH]c2c1CCCCCC2Cc1cccc(Cl)c1)c1ccccc1 (stereo partly drawn) [Cpd 21, (2E)-[9-(3-chloro-benzyl)-4,5,6,7,8,9-hexahydro-1H-cyclooctapyrazol-3-yl]-ethenesulfonic acid [(1S)-1-phenyl-ethyl]-amide] | > 5000 nM | 347 nM | – | – | – |
| C[C@@H](NC(=O)c1nn(-c2ccc(Cl)cc2Cl)c2c1CCCCC/C2=C\c1ccc(F)cc1)C1CCCCC1 [Cpd 17, (9E)-1-(2,4-dichloro-phenyl)-9-(4-fluoro-benzylidene)-4,5,6,7,8,9-hexahydro-1H-cyclooctapyrazole-3-carboxylic acid [(1R)-1-cyclohexyl-ethyl]-amide] | 40 nM | – | 10 nM | 86% | inhibition at 0.2 µM (CB2 receptor [4]; [6]): 25% |
| O=C(N[C@H](CO)c1ccccc1)c1n[nH]c2c1CCCCC[C@@H]2Cc1cccc(Cl)c1 (relative stereo) [Cpd 24, (9R*)-(3-chloro-benzyl)-4,5,6,7,8,9-hexahydro-1H-cyclooctapyrazole-3-carboxylic acid [(1S)-2-hydroxy-1-phenyl-ethyl]-amide] | > 5000 nM | 124 nM | – | – | – |
| COC[C@H](NC(=O)c1n[nH]c2c1CCCCC[C@@H]2Cc1cccc(Cl)c1)c1ccccc1 (relative stereo) [Cpd 27, (9R*)-(3-chloro-benzyl)-4,5,6,7,8,9-hexahydro-1H-cyclooctapyrazole-3-carboxylic acid [(1R)-2-methoxy-1-phenyl-ethyl]-amide] | 43 nM | 26 nM | – | – | – |
| O=C(N[C@@H](CO)c1ccccc1)c1n[nH]c2c1CCCCCC2Cc1cccc(Cl)c1 (stereo in doubt) [Cpd 23, (9R*)-(3-chloro-benzyl)-4,5,6,7,8,9-hexahydro-1H-cyclooctapyrazole-3-carboxylic acid [(1R)-2-hydroxy-1-phenyl-ethyl]-amide] | – | – | – | – | EC50 (human CB1 receptor [1]; SK-N-MC cells, CRE β-gal, forskolin, agonist, read-out: CB1 Receptor Functional Agonist Activity EC50): 88 nM; EC50 (CB2 receptor [2]; SK-N-MC cells, CRE β-gal, forskolin, agonist, read-out: CB2 Receptor Functional Agonist Activity EC50): 11 nM |
| CCOC(=O)C1(NC(=O)c2nn(C3CCCCC3)c3c2CCCCCC3)CC2CCC1C2 (stereo not drawn) [Cpd 4, 2-[(1-cyclohexyl-4,5,6,7,8,9-hexahydro-1H-cyclooctapyrazole-3-carbonyl)-amino]-bicyclo[2.2.1]heptane-2-carboxylic acid ethyl ester] | – | – | 60 nM | – | CB1 receptor percent change in functional activity (human CB1 receptor [1]; single test concentration 1 μM (footnote 2)): ^(2)−71%; inhibition at 0.003 µM (CB2 receptor [4]; [6]): 74% |
| COc1ccc([C@H](C)NS(=O)(=O)/C=C/c2n[nH]c3c2CCCCCC3Cc2cccc(Cl)c2)cc1 (stereo partly drawn) [Cpd 20, (2E)-[9-(3-chloro-benzyl)-4,5,6,7,8,9-hexahydro-1H-cyclooctapyrazol-3-yl]-ethenesulfonic acid [(1S)-1-(4-methoxy-phenyl)-ethyl]-amide] | > 5000 nM | ≥ 5000 nM | – | – | – |
| C[C@@H](NC(=O)c1nn(-c2ccc(Cl)cc2Cl)c2c1CCCCC/C2=C\c1ccc(F)cc1)c1ccccn1 [Cpd 13, (9E)-1-(2,4-dichloro-phenyl)-9-(4-fluoro-benzylidene)-4,5,6,7,8,9-hexahydro-1H-cyclooctapyrazole-3-carboxylic acid [(1R)-1-pyridin-2-yl-ethyl]-amide] | 2 nM | – | 8 nM | 90% | inhibition at 0.2 µM (CB2 receptor [4]; [6]): 11% |
| C[C@@H](NC(=O)c1nn(-c2ccc(Cl)cc2Cl)c2c1CCCCC/C2=C\c1ccc(F)cc1)c1ccccc1 [Cpd 12, (9E)-1-(2,4-dichloro-phenyl)-9-(4-fluoro-benzylidene)-4,5,6,7,8,9-hexahydro-1H-cyclooctapyrazole-3-carboxylic acid [(1R)-1-phenyl-ethyl]-amide] | 10 nM | – | 8 nM | 89% | inhibition at 0.2 µM (CB2 receptor [4]; [6]): 18% |
| O=C(NC(CO)c1ccccc1)c1n[nH]c2c1CCCCCC2Cc1cccc(Cl)c1 [Cpd 22, (9S*)-(3-chloro-benzyl)-4,5,6,7,8,9-hexahydro-1H-cyclooctapyrazole-3-carboxylic acid [(1R)-2-hydroxy-1-phenyl-ethyl]-amide] | 114 nM | 3 nM | – | – | – |
| CC(NC(=O)c1nn(C2CCCCC2)c2c1CCCCCC2)C12CC3CC(CC(C3)C1)C2 (stereo not drawn) [Cpd 6, 1-cyclohexyl-4,5,6,7,8,9-hexahydro-1H-cyclooctapyrazole-3-carboxylic acid (1-adamantan-1-yl-ethyl)-amide] | – | 29 nM | 300 nM | – | inhibition at 1 µM (human CB1 receptor [3]; test concentration 1 μM (footnote 2), read-out: CB1 receptor binding percent inhibition): 86%; IC50 (CB2 receptor [4]; Cannabinoid CB2 Receptor Binding IC50, radioligand CP-55,940 0.2 nM, SK-N-MC membranes): 0.6 nM and 0.7 nM; inhibition at 1 µM (CB2 receptor [4]; [6]): 91% |
| O=C(N[C@H](CO)c1ccccc1)c1n[nH]c2c1CCCCC[C@H]2Cc1cccc(Cl)c1 (relative stereo) [Cpd 25, (9S*)-(3-chloro-benzyl)-4,5,6,7,8,9-hexahydro-1H-cyclooctapyrazole-3-carboxylic acid [(1S)-2-hydroxy-1-phenyl-ethyl]-amide] | > 5000 nM | 14 nM | – | – | – |
| O=C(NNc1ccc(Cl)cc1Cl)c1nn(-c2ccc(Cl)cc2Cl)c2c1CCCCC/C2=C\c1ccc(F)cc1 [Cpd 11, (9E)-1-(2,4-dichloro-phenyl)-9-(4-fluoro-benzylidene)-4,5,6,7,8,9-hexahydro-1H-cyclooctapyrazole-3-carboxylic acid N'-(2,4-dichloro-phenyl)-hydrazide] | – | – | – | 56% | inhibition at 0.2 µM (CB2 receptor [4]; [7]): 30% |
| O=C(NN1CC2CCCC2C1)c1nn(-c2ccc(Cl)cc2Cl)c2c1CCCCC/C2=C\c1ccc(F)cc1 (stereo not drawn) [Cpd 18, (9E)-1-(2,4-dichloro-phenyl)-9-(4-fluoro-benzylidene)-4,5,6,7,8,9-hexahydro-1H-cyclooctapyrazole-3-carboxylic acid (hexahydro-cyclopenta[c]pyrrol-2-yl)-amide] | 20 nM | – | 50 nM | – | – |
| COC[C@H](NC(=O)c1n[nH]c2c1CCCCC[C@H]2Cc1cccc(Cl)c1)c1ccccc1 (relative stereo) [Cpd 26, (9S*)-(3-chloro-benzyl)-4,5,6,7,8,9-hexahydro-1H-cyclooctapyrazole-3-carboxylic acid [(1R)-2-methoxy-1-phenyl-ethyl]-amide] | 70 nM | 5 nM | – | – | – |
| O=C(c1nn(-c2ccc(Cl)cc2Cl)c2c1CCCCC/C2=C\c1ccc(F)cc1)N1CCCCC1 [Cpd 14, (9E)-[1-(2,4-dichloro-phenyl)-9-(4-fluoro-benzylidene)-4,5,6,7,8,9-hexahydro-1H-cyclooctapyrazol-3-yl]-piperidin-1-yl-methanone] | – | – | – | 50% | inhibition at 0.2 µM (CB2 receptor [4]; [7]): 28% |
